According to patent publication US20260295119A1, “TARGET FOR COMBATTING THE FOREIGN BODY RESPONSE TO IMPLANTABLE BIOMATERIALS” (The Regents of the University of Colorado, a body corporate, priority 2023, published 2026):
No end group written: not given here.

What was measured:
RAW 264.7 macrophages [1] = experiment: IL-6 production by PAM3CSK4-stimulated RAW 264.7 macrophages; format: cell-based, mouse
Procedure: The ability of free MyD88 inhibitor T6167923 (Br) or T6167923 (SH) in solution to attenuate pro-inflammatory cytokine production by macrophages treated with PAM3CSK4 was assessed (FIG. 12A). When macrophages were treated with PAM3CSK4, IL-6 production increased (p<0.01) by 3-fold. […] Comparing the two inhibitors at 100 μM, T6167923 (Br) had attenuated IL-6 production by 89%, while T6167923 (SH) had attenuated IL-6 product by 58%.
Inhibitor Preparation and Synthesis: 200 μM stock solutions of T6167923 (Br) and T6167923 (SH) were prepared by first dissolving the inhibitors in 100 μL anhydrous DMSO, then adding dropwise to 9.9 mL culture medium and sterile filtering. The stock solution was then serially diluted in additional cell culture medium to make treatment concentrations. The inhibitor-PEG-peptide molecule was synthesized as follows. Bromoacetamido-dPEG12-TFP ester (36 mg) was added to 400 μL anhydrous DMSO and stirred in an amber vial to dissolve. T6167923 (SH) (17.65 mg) was dissolved in 100 μL anhydrous DMSO before being added dropwise to the amber vial. After 20 minutes of stirring, 1.5 mL of 50 mM sodium bicarbonate buffer, pH 8.4 was slowly added to the vial and the reaction was continued for an additional 20 minutes. Triglycine (8.6 mg) was combined with 2 mL of 50 mM sodium bicarbonate buffer, pH 8.4, then added dropwise to the reaction mixture in the amber vial with stirring. The reaction progressed overnight, then the product was purified by dialysis with 100-500 MWCO tubing against DI water. The reaction was monitored by consumption of sulfhydryls and primary amines. The product was sterile filtered and then lyophilized.
Cell Culture: RAW 264.7 cells were cultured in DMEM with 10% FBS and 1% penicillin/streptomycin at 37° C. and 5% CO2. Depending on the experiment, cells were seeded in tissue culture polystyrene (TCPS) well plates ([…]) or on hydrogels at 625,000 cells/cm^2 and allowed to adhere overnight. For transwell experiments, a transwell with a hydrogel was inserted into the well after the cells were allowed to adhere. For the (T6167923 (Br), T6167923 (SH)), and inhibitor-PEG-peptide studies, cells were treated with inhibitor for a specified period of time. To do this, medium was aspirated from the well and replaced with inhibitor-containing DMEM. Control conditions included cells only and cells plus 1% anhydrous DMSO by volume. After a specified period of culture time, PAM3CSK4 was added at 50 ng/ml and the cells were cultured for a prescribed period of time. Medium was collected and flash frozen for ELISA. […]
(§1) Protein Assays: Cell culture medium was thawed on ice. IL-6 in the culture media was quantified using an ELISA. MMP-12 production in culture media was measured per kit instructions. […]

human MMP-12 = biological target: T1, human MMP-12 (Homo sapiens, UniProt P39900); experiment: Cleavage of hydrogel-tethered tryptophan peptides by MMP-12; format: biochemical; settings: role: substrate; 5 nM activated MMP-12, 285 nm; p<0.001
T1 construct: purchased R&D Systems
T1 sequence (P39900 106-470): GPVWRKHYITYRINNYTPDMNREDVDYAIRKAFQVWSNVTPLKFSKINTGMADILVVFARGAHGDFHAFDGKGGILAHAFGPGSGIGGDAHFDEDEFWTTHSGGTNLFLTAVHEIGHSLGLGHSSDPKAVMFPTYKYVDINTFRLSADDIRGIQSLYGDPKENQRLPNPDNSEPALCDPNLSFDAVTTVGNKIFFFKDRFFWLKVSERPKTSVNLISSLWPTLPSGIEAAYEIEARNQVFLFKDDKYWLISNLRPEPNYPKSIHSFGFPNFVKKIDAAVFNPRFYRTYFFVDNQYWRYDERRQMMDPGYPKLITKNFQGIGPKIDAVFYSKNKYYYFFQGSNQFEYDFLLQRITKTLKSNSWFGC
Procedure: To test the cleavability of the chosen peptides by MMP-12, the sequences were modified with tryptophan residues, tethered to PEG hydrogels at 5 μM concentration, and exposed to 5 nM MMP-12 in buffer. First, the maleimide of acrylate-PEG-maleimide (MW 3,400 g/mol) was reacted with the cysteine residue contained in the peptide sequence to create a PEG-conjugated peptide with tryptophan at one end and an acrylate group at the other. This product was then combined with PEGDA monomer and photoinitiator in PBS and photopolymerized, yielding a gel (FIG. 14C). The release of the tryptophan-containing cleaved portion of the sequence was monitored by measuring buffer absorbance at 285 nm over time (FIG. 14D).
For the release studies, acrylate-PEG-maleimide (6.8 mg) was reacted with peptide (GWGPLGLEEACG [SEQ ID NO. 2] or GWGPLGLARCG [SEQ ID NO. 1], 5 mM) in 500 μL dry DMF for 30 minutes with stirring. PEGDA (100 mg) was then added to the reaction mixture and vortexed to combine. Irgacure 2959 was added as photoinitiator in dry DMF (6 mg/mL). This precursor solution was gelled between glass slides with a 1 mm spacer under UV light for 45 minutes. The resulting 20 wt % hydrogel was soaked in ultrapure water to rinse away DMF followed by additional rinses in TCNB assay buffer (50 mM Tris, 10 mM CaCl2, 150 mM NaCl, 0.05% (w/v) Brij-35, pH 7.5).
Tryptophan Release: Peptide-conjugated hydrogels swollen in TCNB assay buffer were punched to 5 mm diameter and placed in wells of a 96-well clear, flat bottom well plate (n=4 gels for each peptide). Human MMP-12 was reconstituted in 10 mM MES, 0.1 M NaCl, 100 μM CaCl2, 0.1% (w/v) CHAPS, 1 μM ZnSO4, 0.1% (w/v) PEG, pH 6.0 buffer to 0.25 mg/mL. It was then diluted to 50 μg/mL with TCNB assay buffer and activated by adding 100 mM APMA in DMSO to 1 mM final concentration and incubating at 37° C. for 24 hours. […] At each time point, 2 μL supernatant was removed from each well and spectrophotometrically measured on the Nanodrop at 285 nm. […]

RAW 264.7 macrophages [2] = experiment: MMP-12 secretion by RAW 264.7 macrophages (ELISA); format: cell-based, mouse; settings: PAM3CSK4 50 ng/ml, 8 h
Procedure: RAW 264.7 macrophages were cultured in serum-free (1% ITS) media (FIG. 14A) or serum-containing medium (10% FBS) (FIG. 14(B)) and treated or not with PAM3CSK4 (50 ng/ml), then their secretion of MMP-12 over the 8-hour period was evaluated by ELISA. Macrophages with (p<0.01) and without (p<0.001) PAM3CSK4 stimulation secreted MMP-12 when cultured in the serum-free media, with average levels of 245 and 556 μg/mL, respectively. In serum-containing media, the production of MMP-12 was on average 178 μg MMP-12/mL (p<0.01 relative to blank) in unstimulated cells. […] Unstimulated cells in the same media secreted MMP-12. MMP-12 production by the cells was higher in ITS media than in FBS media.
Cell Culture: RAW 264.7 cells were cultured in DMEM with 10% FBS and 1% penicillin/streptomycin at 37° C. and 5% CO2. Depending on the experiment, cells were seeded in tissue culture polystyrene (TCPS) well plates ([…]) or on hydrogels at 625,000 cells/cm^2 and allowed to adhere overnight. For transwell experiments, a transwell with a hydrogel was inserted into the well after the cells were allowed to adhere. […]
as §1

## C[C@H](NC(=O)N1CCN(S(=O)(=O)c2cccc(Br)c2)CC1)c1cccs1 [T6167923 (Br)]
RAW 264.7 macrophages [1]; 100 μM inhibitor, PAM3CSK4 50 ng/ml
  attenuation of IL-6 production: 89%
RAW 264.7 macrophages [1]; PAM3CSK4 50 ng/ml
  dose dependence of IL-6 attenuation: a dose-dependent response was observed
  inhibitor concentrations at which IL-6 was significantly lower than untreated PAM3CSK4-stimulated cells: 50 to 200 µM

## GWGPLGLARCG [SEQ ID NO. 1]: MMP-12 cleavable peptide, tryptophan modified, tethered to PEG hydrogel (also: tethered to PEG hydrogel)
Human MMP-12
  cleavage by MMP-12 (tryptophan cumulative release): cleaved by the MMP-12
  rate of cleavage by MMP-12 relative to the longer peptide (SEQ ID NO. 2): slightly faster rate

## GWGPLGLEEACG [SEQ ID NO. 2]: MMP-12 cleavable peptide, tryptophan modified, tethered to PEG hydrogel (also: tethered to PEG hydrogel)
Human MMP-12
  cleavage by MMP-12 (tryptophan cumulative release): cleaved by the MMP-12

## PAM3CSK4
RAW 264.7 macrophages [1]; PAM3CSK4 treatment vs unstimulated, no inhibitor, p<0.01
  increase in IL-6 production: 3 -fold
RAW 264.7 macrophages [2]; serum-containing medium (10% FBS)
  MMP-12 levels compared to blank (no cells): not statistically different to the blank
RAW 264.7 macrophages [2]; serum-free (1% ITS) media, p<0.01 vs blank
  MMP-12 secretion: 245 µg/mL
